Test results as given in ChEMBL document CHEMBL1148424, “Synthesis of novel melanocortin 4 receptor agonists and antagonists containing a succinamide core” (Bioorg Med Chem Lett, 2004).

Tests used:
[1] = biological target: T1, Melanocortin receptor 4 (Homo sapiens, UniProt P32245); assay: Inhibitory activity against [125I]NDP-alpha-MSH binding to the human melanocortin 4 receptor
[2] = biological target: T1, Melanocortin receptor 4; assay: Intracellular level of cAMP in cells expressing the melanocortin 4 receptor; format: functional
[3] = biological target: T1, Melanocortin receptor 4; assay: Percentage of maximal response with respect to alpha-MSH in cells expressing the melanocortin 4 receptor; format: functional
[4] = biological target: Melanocyte-stimulating hormone receptor (Mus musculus, UniProt Q01727); assay: Inhibitory activity against mouse melanocortin 1 receptor
[5] = biological target: Melanocortin receptor 3 (Homo sapiens, UniProt P41968); assay: Inhibitory activity against human melanocortin 3 receptor
Chain of Melanocortin receptor 3 (P41968 whole entry): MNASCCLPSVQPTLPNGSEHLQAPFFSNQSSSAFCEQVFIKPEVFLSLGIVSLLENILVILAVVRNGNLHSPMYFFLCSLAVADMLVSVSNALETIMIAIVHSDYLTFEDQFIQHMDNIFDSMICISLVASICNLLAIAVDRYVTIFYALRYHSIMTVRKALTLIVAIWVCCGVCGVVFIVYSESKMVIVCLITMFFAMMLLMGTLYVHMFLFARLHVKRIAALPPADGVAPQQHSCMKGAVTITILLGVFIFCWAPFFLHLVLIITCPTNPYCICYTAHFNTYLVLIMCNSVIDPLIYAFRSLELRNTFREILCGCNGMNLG

T1 sequence (P32245 whole entry): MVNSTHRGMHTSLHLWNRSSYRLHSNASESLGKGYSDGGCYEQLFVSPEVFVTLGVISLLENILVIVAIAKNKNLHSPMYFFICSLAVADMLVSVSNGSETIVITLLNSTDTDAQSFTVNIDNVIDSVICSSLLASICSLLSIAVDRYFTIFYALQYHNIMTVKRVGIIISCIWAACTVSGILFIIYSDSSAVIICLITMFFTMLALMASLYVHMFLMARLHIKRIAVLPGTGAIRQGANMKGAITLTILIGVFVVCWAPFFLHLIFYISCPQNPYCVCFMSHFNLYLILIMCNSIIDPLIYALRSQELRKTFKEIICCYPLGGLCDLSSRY
Chain of Melanocyte-stimulating hormone receptor (Q01727 whole entry): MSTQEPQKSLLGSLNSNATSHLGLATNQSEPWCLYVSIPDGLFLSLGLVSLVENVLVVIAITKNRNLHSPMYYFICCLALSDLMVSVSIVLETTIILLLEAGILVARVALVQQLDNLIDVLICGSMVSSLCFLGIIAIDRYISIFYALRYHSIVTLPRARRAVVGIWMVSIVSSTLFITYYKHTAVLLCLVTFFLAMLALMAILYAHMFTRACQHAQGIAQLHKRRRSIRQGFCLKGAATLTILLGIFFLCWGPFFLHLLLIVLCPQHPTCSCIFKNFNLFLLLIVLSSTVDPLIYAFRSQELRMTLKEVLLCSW

Compound | IC50 [1] | EC50 [2] | Activation [3] | IC50 [4] | IC50 [5]
CCN1CCN(C(=O)C[C@H](Cc2ccc(Cl)cc2)C(=O)N2CCN(c3ccccc3N(CC3CC3)S(C)(=O)=O)CC2)CC1 | 9.5 nM | > 10000 nM | 0% |  | 
CCN(C(C)=O)C(C)c1ccccc1N1CCN(C(=O)[C@H](CC(=O)NCc2ccccc2F)Cc2ccc(Cl)cc2)CC1 (some centres undefined) | 13 nM | 89 nM | 100% | > 1600 nM | > 10000 nM
CS(=O)(=O)N(CC1CC1)c1ccccc1N1CCN(C(=O)[C@@H](Cc2ccc(Cl)cc2)NC(=O)C2CCNCC2)CC1 | 130 nM | < 0.1 nM | > 90% |  | 
CCOC(=O)N1CCN(C(=O)C[C@H](Cc2ccc(Cl)cc2)C(=O)N2CCN(c3ccccc3N(CC3CC3)S(C)(=O)=O)CC2)CC1 | 1.4 nM | > 10000 nM | 0% | > 10000 nM | > 10000 nM
CCN(C(C)=O)C(C)c1ccccc1N1CCN(C(=O)[C@H](CC(=O)N2CCC2)Cc2ccc(Cl)cc2)CC1 (some centres undefined) | 19 nM | 340 nM | 90% | > 1400 nM | > 10000 nM
CC(C)(C)OC(=O)N1CCN(C(=O)C[C@H](Cc2ccc(Cl)cc2)C(=O)N2CCN(c3ccccc3N(CC3CC3)S(C)(=O)=O)CC2)CC1 | 3.3 nM | > 10000 nM | 0% | > 10000 nM | > 3500 nM
CS(=O)(=O)N1CC2(CCN(C(=O)[C@@H](Cc3ccc(Cl)cc3)NC(=O)[C@H]3Cc4ccccc4CN3)CC2)c2ccccc21 | 66 nM | 5.2 nM | 100% | 153 nM | 2900 nM
CCN(C(C)=O)C(C)c1ccccc1N1CCN(C(=O)[C@H](CC(=O)N2CCN(C(=O)OC(C)(C)C)CC2)Cc2ccc(Cl)cc2)CC1 (some centres undefined) | 2 nM | > 10000 nM | 0% |  | 
CS(=O)(=O)N(CC1CC1)c1ccccc1N1CCN(C(=O)[C@H](CC(=O)N2CCNCC2)Cc2ccc(Cl)cc2)CC1 | 220 nM | 2000 nM | 70% | > 8000 nM | > 8000 nM
CC(C)(C)CC(=O)N1CCN(C(=O)C[C@H](Cc2ccc(Cl)cc2)C(=O)N2CCN(c3ccccc3N(CC3CC3)S(C)(=O)=O)CC2)CC1 | < 0.1 nM | 74 nM | 45% | > 1800 nM | > 10000 nM
CCN(C(C)=O)C(C)c1ccccc1N1CCN(C(=O)[C@H](CC(=O)NC2CCC2)Cc2ccc(Cl)cc2)CC1 (some centres undefined) | 5.8 nM | 15 nM | 100% | > 600 nM | > 10000 nM
CC(C)CCN1CCN(C(=O)C[C@H](Cc2ccc(Cl)cc2)C(=O)N2CCN(c3ccccc3N(CC3CC3)S(C)(=O)=O)CC2)CC1 | 4.8 nM | > 10000 nM | 0% |  | 
CC(=O)N1CCN(C(=O)C[C@H](Cc2ccc(Cl)cc2)C(=O)N2CCN(c3ccccc3N(CC3CC3)S(C)(=O)=O)CC2)CC1 | 11 nM | > 10000 nM | 0% | > 10000 nM | > 10000 nM
CCCN1CCN(C(=O)C[C@H](Cc2ccc(Cl)cc2)C(=O)N2CCN(c3ccccc3N(CC3CC3)S(C)(=O)=O)CC2)CC1 | 8.9 nM | > 10000 nM | 0% | > 10000 nM | > 10000 nM
CCN(C(C)=O)C(C)c1ccccc1N1CCN(C(=O)[C@H](CC(=O)NCc2ccccn2)Cc2ccc(Cl)cc2)CC1 (some centres undefined) | 32 nM | 37 nM | 95% |  | 
CS(=O)(=O)N(CC1CC1)c1ccccc1N1CCN(C(=O)[C@H](CC(=O)N2CCN(CC3CC3)CC2)Cc2ccc(Cl)cc2)CC1 | 3 nM | > 10000 nM | 0% |  | 
CS(=O)(=O)N(CC1CC1)c1ccccc1N1CCN(C(=O)[C@H](CC(=O)N2CCN(C(=O)c3ccccc3)CC2)Cc2ccc(Cl)cc2)CC1 | 4.4 nM | 83 nM | 55% |  | 
CCN(C(C)=O)C(C)c1ccccc1N1CCN(C(=O)[C@H](CC(=O)N2CCSC2)Cc2ccc(Cl)cc2)CC1 (some centres undefined) | 9.4 nM | 530 nM | 80% |  | 
